Tests used:
Format in all cases: functional
[1] = tested on: SNB-19; assay: Growth inhibition of human SNB19 cells assessed as cell growth at 10^-8 M incubated for 48 hrs by sulforhodamine B assay relative to control; conditions: SNB-19, 48 h, read-out: Activity
[2] = tested on: NCI-H23; assay: Growth inhibition of human NCI-H23 cells assessed as cell growth at 10^-6 M incubated for 48 hrs by sulforhodamine B assay relative to control; conditions: NCI-H23, 48 h, read-out: Activity
[3] = tested on: MDA-MB-231; assay: Growth inhibition of human MDA-MB-231 cells assessed as cell growth at 10^-7 M incubated for 48 hrs by sulforhodamine B assay relative to control; conditions: MDA-MB-231, 48 h, read-out: Activity
[4] = tested on: SN12C; assay: Growth inhibition of human SN12C cells assessed as cell growth at 10^-5 M incubated for 48 hrs by sulforhodamine B assay relative to control; conditions: read-out: Activity
[5] = tested on: 786-0; assay: Cytotoxicity against human 786-0 cells after 48 hrs by SRB assay; conditions: 786-0, 48 h; for GI50: read-out: GI50
[6] = tested on: PC-3; assay: Growth inhibition of human PC3 cells assessed as cell growth at 10^-7 M incubated for 48 hrs by sulforhodamine B assay relative to control; conditions: PC-3, 48 h, read-out: Activity
[7] = tested on: SF-268; assay: Growth inhibition of human SF268 cells assessed as cell growth at 10^-7 M incubated for 48 hrs by sulforhodamine B assay relative to control; conditions: SF-268, 48 h, read-out: Activity
[8] = tested on: K562; assay: Growth inhibition of human K562 cells assessed as cell growth at 10^-4 M incubated for 48 hrs by sulforhodamine B assay relative to control; conditions: K562, 48 h, read-out: Activity
[9] = tested on: Malme-3M; assay: Growth inhibition of human MALME-3M cells assessed as cell growth at 10^-6 M incubated for 48 hrs by sulforhodamine B assay relative to control; conditions: read-out: Activity
[10] = tested on: NCI-H460; assay: Growth inhibition of human NCI-H460 cells assessed as cell growth at 10^-7 M incubated for 48 hrs by sulforhodamine B assay relative to control; conditions: NCI-H460, 48 h, read-out: Activity
[11] = tested on: MDA-MB-231; assay: Growth inhibition of human MDA-MB-231 cells assessed as cell growth at 10^-6 M incubated for 48 hrs by sulforhodamine B assay relative to control; conditions: MDA-MB-231, 48 h, read-out: Activity
[12] = tested on: SF-268; assay: Growth inhibition of human SF268 cells assessed as cell growth at 10^-6 M incubated for 48 hrs by sulforhodamine B assay relative to control; conditions: SF-268, 48 h, read-out: Activity
[13] = tested on: K562; assay: Cytotoxicity against human K562 cells after 48 hrs by SRB assay; conditions: K562, 48 h; for GI50: read-out: GI50; for CC50: read-out: pLC50 (the source's name) (converted)
[14] = tested on: HT-29; assay: Growth inhibition of human HT-29 cells assessed as cell growth at 10^-7 M incubated for 48 hrs by sulforhodamine B assay relative to control; conditions: HT-29, 48 h, read-out: Activity
[15] = tested on: HCT-116; assay: Growth inhibition of human HCT116 cells assessed as cell growth at 10^-5 M incubated for 48 hrs by sulforhodamine B assay relative to control; conditions: HCT-116, 48 h, read-out: Activity
[16] = tested on: SK-OV-3; assay: Growth inhibition of human SKOV3 cells assessed as cell growth at 10^-8 M incubated for 48 hrs by sulforhodamine B assay relative to control; conditions: SK-OV-3, 48 h, read-out: Activity
[17] = tested on: OVCAR-3; assay: Growth inhibition of human OVCAR3 cells assessed as cell growth at 10^-7 M incubated for 48 hrs by sulforhodamine B assay relative to control; conditions: OVCAR-3, 48 h, read-out: Activity
[18] = tested on: UO-31; assay: Growth inhibition of human UO31 cells assessed as cell growth at 10^-8 M incubated for 48 hrs by sulforhodamine B assay relative to control; conditions: UO-31, 48 h, read-out: Activity
[19] = tested on: HOP-92; assay: Growth inhibition of human HOP92 cells assessed as cell growth at 10^-7 M incubated for 48 hrs by sulforhodamine B assay relative to control; conditions: HOP-92, 48 h, read-out: Activity
[20] = tested on: SK-MEL-5; assay: Cytotoxicity against human SK-MEL-5 cells after 48 hrs by SRB assay; conditions: SK-MEL-5, 48 h; for GI50: read-out: GI50; for TGI: read-out: TGI
[21] = tested on: OVCAR-8; assay: Growth inhibition of human OVCAR8 cells assessed as cell growth at 10^-8 M incubated for 48 hrs by sulforhodamine B assay relative to control; conditions: OVCAR-8, 48 h, read-out: Activity
[22] = tested on: T47D; assay: Cytotoxicity against human T47D cells after 48 hrs by SRB assay; conditions: for TGI: read-out: TGI
[23] = tested on: SNB-75; assay: Cytotoxicity against human SNB75 cells after 48 hrs by SRB assay; conditions: SNB-75, 48 h; for GI50: read-out: GI50; for CC50: read-out: LC50 (the source's name); for TGI: read-out: TGI
[24] = tested on: KM12; assay: Growth inhibition of human KM12 cells assessed as cell growth at 10^-4 M incubated for 48 hrs by sulforhodamine B assay relative to control; conditions: KM12, 48 h, read-out: Activity
[25] = tested on: TK-10; assay: Growth inhibition of human TK10 cells assessed as cell growth at 10^-6 M incubated for 48 hrs by sulforhodamine B assay relative to control; conditions: TK-10, 48 h, read-out: Activity
[26] = tested on: HCT-15; assay: Cytotoxicity against human HCT15 cells after 48 hrs by SRB assay; conditions: HCT-15, 48 h; for GI50: read-out: GI50
[27] = tested on: SF-295; assay: Cytotoxicity against human SF295 cells after 48 hrs by SRB assay; conditions: SF-295, 48 h; for GI50: read-out: GI50; for CC50: read-out: LC50 (the source's name)
[28] = tested on: NCI-H226; assay: Growth inhibition of human NCI-H226 cells assessed as cell growth at 10^-7 M incubated for 48 hrs by sulforhodamine B assay relative to control; conditions: NCI-H226, 48 h, read-out: Activity
[29] = tested on: HCT-116; assay: Cytotoxicity against human HCT116 cells after 48 hrs by SRB assay; conditions: HCT-116, 48 h; for GI50: read-out: GI50; for CC50: read-out: pLC50 (the source's name) (converted)
[30] = tested on: HCT-15; assay: Growth inhibition of human HCT15 cells assessed as cell growth at 10^-4 M incubated for 48 hrs by sulforhodamine B assay relative to control; conditions: HCT-15, 48 h, read-out: Activity
[31] = tested on: SK-MEL-2; assay: Cytotoxicity against human SK-MEL-2 cells after 48 hrs by SRB assay; conditions: SK-MEL-2, 48 h; for GI50: read-out: GI50; for CC50: read-out: LC50 (the source's name); for TGI: read-out: TGI
[32] = tested on: SR; assay: Growth inhibition of human SR cells assessed as cell growth at 10^-5 M incubated for 48 hrs by sulforhodamine B assay relative to control; conditions: read-out: Activity
[33] = read-out: LC50 (the source's name)
[34] = read-out: pLC50 (the source's name) (converted)

SMILES: C#C[C@@]1(O)[C@@H](CO)O[C@@H](n2cc(I)c3c(N)ncnc32)[C@@H]1O
- growth at 0.01 µM [1]: 88 to 92%
- growth at 1 µM [2]: 28 to 33%
- growth at 0.1 µM [3]: 60%
- growth at 10 µM [4]: 5 to 7%
- GI50 [5]: 236 to 334 nM
- TGI ([5]; read-out: TGI): 3240 nM
- LC50 (lethal concentration, 50% cell kill) ([5]; read-out: pLC50 (converted)): > 100000 nM
- TGI ([5]; read-out: pTGI (converted)): 3240 nM
- growth at 0.1 µM [6]: 43 to 48%
- growth at 0.1 µM [7]: 70 to 73%
- growth at 100 µM [8]: 7 to 8%
- growth at 1 µM [9]: 39 to 61%
- growth at 0.1 µM [10]: 37 to 56%
- growth at 1 µM [11]: 17 to 27%
- growth at 1 µM [12]: 49 to 55%
- GI50 [13]: 59.5 to 69 nM
- TGI ([13]; read-out: TGI): > 100000 nM
- CC50 [13]: > 100000 nM
- TGI ([13]; read-out: pTGI): > 100000 nM
- growth at 0.1 µM [14]: 14 to 34%
- growth at 10 µM [15]: 3%
- growth at 0.01 µM [16]: 60 to 85%
- growth at 0.1 µM [17]: 76 to 79%
- growth at 0.01 µM [18]: 84 to 85%
- growth at 0.1 µM [19]: 38 to 70%
- GI50 [20]: 179 to 243 nM
- CC50 [20, 33]: > 100000 nM
- TGI [20]: 2090 to 5200 nM
- growth at 0.01 µM [21]: 75 to 89%
- TGI [22]: 51 to 315 nM
- GI50 ([22]; read-out: pGI50 (converted)): < 10 nM
- CC50 [22, 34]: > 100000 nM
- GI50 [23]: 373 to 559 nM
- CC50 [23]: 5530 to 5920 nM
- TGI [23]: 1810 to 2180 nM
- growth at 100 µM [24]: 3 to 9%
- growth at 1 µM [25]: 34 to 39%
- GI50 [26]: 107 to 175 nM
- CC50 [26, 33]: > 100000 nM
- TGI ([26]; read-out: TGI): > 100000 nM
- TGI ([26]; read-out: pTGI (converted)): > 100000 nM
- GI50 [27]: 251 to 432 nM
- CC50 [27]: > 100000 nM
- TGI ([27]; read-out: TGI): 3770 nM
- TGI ([27]; read-out: pTGI (converted)): 3800 nM
- growth at 0.1 µM [28]: 75 to 95%
- GI50 [29]: 34.4 to 54.7 nM
- TGI ([29]; read-out: TGI): > 100000 nM
- CC50 [29]: > 100000 nM
- TGI ([29]; read-out: pTGI (converted)): > 100000 nM
- growth at 100 µM [30]: 1%
- GI50 [31]: 177 to 321 nM
- CC50 [31]: 7770 to 100000 nM
- TGI [31]: 1590 to 1950 nM

SMILES: C#C[C@@]1(O)[C@@H](CO)O[C@@H](n2cc(Cl)c3c(N)ncnc32)[C@@H]1O
- growth at 0.01 µM [1]: 68 to 94%
- growth at 0.1 µM [3]: 60 to 71%
- GI50 [5]: 308 to 336 nM
- LC50 (lethal concentration, 50% cell kill) ([5]; read-out: LC50): 5210 to 5700 nM
- TGI ([5]; read-out: TGI): 1310 to 1340 nM
- growth at 0.1 µM [6]: 62 to 70%
- growth at 0.1 µM [7]: 77 to 80%
- growth at 100 µM [8]: 7 to 8%
- growth at 0.1 µM [10]: 13 to 27%
- growth at 1 µM [11]: -4%
- growth at 1 µM [12]: 23 to 24%
- GI50 [13]: 78.1 to 126 nM
- TGI ([13]; read-out: TGI): > 100000 nM
- CC50 [13]: > 100000 nM
- TGI ([13]; read-out: pTGI): > 100000 nM
- growth at 0.1 µM [14]: 18 to 38%
- growth at 10 µM [15]: 4%
- growth at 0.01 µM [16]: 84 to 94%
- growth at 0.1 µM [17]: 74 to 77%
- growth at 0.01 µM [18]: 67 to 82%
- growth at 0.1 µM [19]: 90%
- GI50 [20]: 109 to 140 nM
- TGI [20]: 268 to 343 nM
- growth at 0.01 µM [21]: 50 to 62%
- GI50 ([22]; read-out: GI50): 33.6 to 98 nM
- CC50 [22, 33]: > 100000 nM
- TGI [22]: 428 to 559 nM
- GI50 [23]: 258 to 310 nM
- CC50 [23]: 1800 to 3210 nM
- TGI [23]: 574 to 888 nM
- growth at 100 µM [24]: 2 to 6%
- GI50 [26]: 134 to 152 nM
- TGI ([26]; read-out: TGI): > 100000 nM
- CC50 [26, 34]: > 100000 nM
- TGI ([26]; read-out: pTGI (converted)): > 100000 nM
- GI50 [27]: 202 to 298 nM
- CC50 [27]: > 100000 nM
- TGI ([27]; read-out: TGI): 1900 to 3200 nM
- growth at 10 µM [32]: 1 to 5%
- growth at 0.1 µM [28]: 102 to 108%
- GI50 [29]: 18.5 to 22.1 nM
- TGI ([29]; read-out: TGI): > 100000 nM
- CC50 [29]: > 100000 nM
- TGI ([29]; read-out: pTGI (converted)): > 100000 nM
- growth at 100 µM [30]: 1%
- GI50 [31]: 83.5 to 146 nM
- CC50 [31]: > 100000 nM
- TGI [31]: 268 to 481 nM

— ChEMBL document CHEMBL4270599, “Synthesis of a 3'-C-ethynyl-β-d-ribofuranose purine nucleoside library: Discovery of C7-deazapurine analogs as potent antiproliferative nucleosides” (Eur J Med Chem, 2018)
